Source: ChEMBL document CHEMBL1201862, “PubChem BioAssay data set” (2004)
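The compound was tested at five concentrations on cells cultured in 96-well plates, with a 48-hour exposure period. GI50 is the concentration that inhibits growth by half.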 Activity calls are given as the source filed them. Rule as the data show it: active = GI50 up to about 1.1 µM and inactive = higher.

Experiments:
Assay in all cases: NCI-60 cell line screen, 48 h
[1] = test system: DLD-1
[2] = test system: DMS-273
[3] = test system: LXFL 529
[4] = test system: HOP-18
[5] = test system: KM-20L2
[6] = test system: XF498
[7] = test system: DMS-114
[8] = test system: RXF 631
[9] = test system: M19-MEL

SMILES | GI50 [1] | GI50 [2] | GI50 [3] | GI50 [4] | GI50 [5] | GI50 [6] | GI50 [7] | GI50 [8] | GI50 [9]
CN(C)CCNC(=O)c1cccc2cc3ccc4ccccc4c3nc12 | 0.0561 µM (active) | 0.0224 µM (active) | 0.128 µM (active) | 0.205 µM (active) | 0.136 µM (active) | 0.056 µM (active) | – | – | –
COCCOCC(=O)N(CCn1ccc(NC(c2ccccc2)(c2ccccc2)c2ccccc2)nc1=O)CCn1cnc2nc(N)[nH]c(=O)c21 | > 100 µM (inactive) | > 100 µM (inactive) | > 100 µM (inactive) | > 100 µM (inactive) | > 100 µM (inactive) | – | > 100 µM (inactive) | > 100 µM (inactive) | –
COc1ccc(/N=N/c2c(-c3ccccc3)nn(C(=O)CC(=O)Nc3cccc(Cl)c3)c2-c2ccccc2)cc1 | 40.6 µM (inactive) | > 100 µM (inactive) | > 100 µM (inactive) | 66.8 µM (inactive) | 66.1 µM (inactive) | > 100 µM (inactive) | 45.8 µM (inactive) | – | > 100 µM (inactive)
Cc1ccc(/C=N/NS(=O)(=O)c2ccccc2)cc1 | > 100 µM (inactive) | > 100 µM (inactive) | > 100 µM (inactive) | > 100 µM (inactive) | > 100 µM (inactive) | > 100 µM (inactive) | > 100 µM (inactive) | > 100 µM (inactive) | –
C=C1C(=O)OC2C=C(CCC(C)=O)C(C)C(OC(C)=O)CC12 (configuration not stated) | – | – | 0.447 µM (active) | 11.7 µM (inactive) | 4.89 µM (inactive) | 12.9 µM (inactive) | – | – | 14.6 µM (inactive)
COC1OC(C)C2OC(C)(C)OC2C1OC(C)=O (configuration not stated) | > 100 µM (inactive) | > 100 µM (inactive) | > 100 µM (inactive) | > 100 µM (inactive) | > 100 µM (inactive) | > 100 µM (inactive) | – | > 100 µM (inactive) | > 100 µM (inactive)
CC1(C)C(O)C[C@@H](O)[C@@]2(C)C1CC[C@]1(C)C2C[C@@H](O)[C@@H]2C([C@@]3(C)CC[C@@H](C(C)(C)O)O3)CCC21C (some centres not stated) | 16.5 µM (inactive) | 14.6 µM (inactive) | 10.2 µM (inactive) | 16.8 µM (inactive) | 17.5 µM (inactive) | 18.2 µM (inactive) | 15.5 µM (inactive) | – | –
COc1ccc(C(c2ccc(C(C)C)cc(OC)c2=O)c2ccc(C(C)C)cc(OC)c2=O)cc1 | 6.3 µM (inactive) | 14.8 µM (inactive) | 14.5 µM (inactive) | 25.4 µM (inactive) | 14.1 µM (inactive) | 20.4 µM (inactive) | 12.3 µM (inactive) | 15 µM (inactive) | 14.1 µM (inactive)
CC[C@@]1(OC(=O)C(N)CCCCN)C(=O)OCc2c1cc1n(c2=O)Cc2cc3ccccc3nc2-1 (some centres not stated) | 0.494 µM (active) | < 0.01 µM (active) | 0.372 µM (active) | 0.0785 µM (active) | 0.166 µM (active) | 0.201 µM (active) | < 0.0157 µM (active) | – | 0.0619 µM (active)
O=C(CC1(O)C(=O)Nc2c(Cl)cc(Cl)cc21)c1ccc(F)cc1 (configuration not stated) | 46.8 µM (inactive) | 38.2 µM (inactive) | 31.9 µM (inactive) | 72.1 µM (inactive) | 53 µM (inactive) | 14.4 µM (inactive) | 23.9 µM (inactive) | 32.5 µM (inactive) | 19 µM (inactive)
Cc1ccc(S(=O)(=O)N/N=C(\c2nc3ccc([N+](=O)[O-])cc3nc2O)C(O)c2ccccc2Cl)cc1 (configuration not stated) | > 100 µM (inactive) | > 100 µM (inactive) | 35.8 µM (inactive) | > 100 µM (inactive) | > 100 µM (inactive) | – | 16.7 µM (inactive) | > 100 µM (inactive) | 86.9 µM (inactive)
Cc1ccc(S(=O)(=O)C(C#N)c2nc3ccccc3nc2-n2cccn2)cc1 (configuration not stated) | > 100 µM (inactive) | > 100 µM (inactive) | > 100 µM (inactive) | 86.9 µM (inactive) | – | > 100 µM (inactive) | > 100 µM (inactive) | – | > 100 µM (inactive)
Cc1cccc(/N=C/c2ccc(N(CCC#N)S(=O)(=O)c3ccccc3)cc2C)c1 | > 100 µM (inactive) | > 100 µM (inactive) | 29.6 µM (inactive) | – | > 100 µM (inactive) | > 100 µM (inactive) | 63.7 µM (inactive) | > 100 µM (inactive) | > 100 µM (inactive)
CCOC(=O)C1S/C(=N\C(=N)N[N+](=O)[O-])N=C1C (configuration not stated) | > 100 µM (inactive) | – | > 100 µM (inactive) | > 100 µM (inactive) | > 100 µM (inactive) | > 100 µM (inactive) | > 100 µM (inactive) | – | > 100 µM (inactive)
O=C1C(=Cc2cccs2)C(=O)N(CCc2ccccc2)S(=O)(=O)N1CCc1ccccc1 | > 50 µM (inactive) | > 50 µM (inactive) | > 50 µM (inactive) | > 50 µM (inactive) | > 50 µM (inactive) | > 50 µM (inactive) | 10.4 µM (inactive) | – | > 50 µM (inactive)
C=CCC1(CN(C)C)CC/C(=C\c2ccc(Cl)cc2)C1=O (configuration not stated) | 32.1 µM (inactive) | 24.7 µM (inactive) | 27.5 µM (inactive) | > 54.1 µM (inactive) | 22.8 µM (inactive) | 77.6 µM (inactive) | 27.4 µM (inactive) | – | 32.3 µM (inactive)
Cc1cc(C)nc(NS(=O)(=O)c2ccc(NC(=O)c3cccc4cc5ccccc5nc34)cc2)n1 | 27.5 µM (inactive) | 21.9 µM (inactive) | 36.1 µM (inactive) | – | 37.2 µM (inactive) | 25.3 µM (inactive) | – | 28.5 µM (inactive) | 28.2 µM (inactive)
CC1(C)C(O)OC(O)C1(C)C (configuration not stated) | 52.5 µM (inactive) | 70.5 µM (inactive) | 74 µM (inactive) | 49.1 µM (inactive) | > 100 µM (inactive) | 47 µM (inactive) | > 100 µM (inactive) | 61 µM (inactive) | > 100 µM (inactive)
